Experiments:
[1] = tested on: Watanabe heritable hyperlipidemic (WHHL) rabbit; assay: Antiatherosclerotic and hypocholesterolemic effects in the Watanabe Heritable Hyperlipidemic rabbit (Example 2); assay type: in vivo; conditions: for Aortic Lesions, as a percent of control group / HDL Protein, as a percent of control group / LDL Cholesterol, as a percent of control group / Plasma Cholesterol, as a percent of control group: mean vs respective control group
Source text: Divide Watanabe Heritable Hyperlipidemic rabbits (WHHL), 13 to 15 weeks of age, into two treatment groups of 4 to 5 rabbits each. To one treatment group feed standard rabbit chow [Control Group], and to the other group feed standard rabbit chow containing the test compound (1% by weight) [Treatment Group]. In one experiment, probucol is the active treatment [Treatment Group A]. In another experiment, bis(3,5-di-tertiarybutyl-4-hydroxyphenylthio)methane is the active treatment [Treatment Group B].
After 12 weeks of treatment, sacrifice the study animals and take plasma and aorta samples. Determine for each study animal the extent of the atherosclerotic lesions of the aorta by the method of Badimon et al. [Atherosclerosis 61, 57 (1986)]. Determine for each study animal plasma cholesterol concentrations by an enzymatic method using a DACOS analyzer (Coulter Electronics Inc., Hialeah, Florida, USA). Isolate plasma lipoproteins by sequential ultracentrifugation and determine LDL and HDL cholesterol and protein by the method of Mao et al. [Biochemistry 14, 4127 (1975)].

[2] = tested on: mice; conditions: cited from earlier work
[3] = tested on: human LDL; assay: Inhibition of LDL peroxidation (cupric sulfate, thiobarbituric acid assay; Example 3); conditions: ratio of ID50, in words
[4] = tested on: WHHL rabbit; conditions: in words; cited from earlier work
[5] = tested on: LDL; conditions: in vitro; in words; cited from earlier work
[6] = tested on: LDL; conditions: in words; cited from earlier work
[7] = 1% (w/w) in feed, 12 weeks, in words

Row | SMILES | Aortic Lesions, as a percent of control group ([1]; 1% (w/w) in feed, 12 weeks) | HDL Protein, as a percent of control group ([1]; 1% (w/w) in feed, 12 weeks) | LDL Cholesterol, as a percent of control group ([1]; 1% (w/w) in feed, 12 weeks) | Plasma Cholesterol, as a percent of control group ([1]; 1% (w/w) in feed, 12 weeks) | amount of HDL in the blood, as measured by HDL protein [1, 7] | reduction of LDL cholesterol compared with probucol [1, 7] | reduction of aortic lesions compared with probucol [1, 7] | reduction of plasma cholesterol compared with probucol [1, 7] | progression of atherosclerosis in the WHHL rabbit ([1]; in words) | serum cholesterol in the WHHL rabbit ([1]; in words) | reduction in the blood cholesterol of mice, in words ([2]; comparable treatment (to 2 weeks probucol)) | effectiveness in inhibiting peroxidation of human LDL relative to probucol [3] | reduction in the blood cholesterol of mice ([2]; 2 week treatment) | preventing the progression of atherosclerosis in WHHL rabbit [4] | inhibition of oxidative modification of LDL by cupric ions [5] | inhibition of oxidative modification of LDL by endothelial cells [6]
1 | CC(C)(C)c1cc(SCSc2cc(C(C)(C)C)c(O)c(C(C)(C)C)c2)cc(C(C)(C)C)c1O | -38% | +8% | -35% | -20% | increased | to a greater extent than probucol | to a greater extent than probucol | to a greater extent than probucol | prevents the progression of atherosclerosis | reduces serum cholesterol | no reduction | over twice as effective | – | – | – | –
2 | CC(C)(Sc1cc(C(C)(C)C)c(O)c(C(C)(C)C)c1)Sc1cc(C(C)(C)C)c(O)c(C(C)(C)C)c1 [Probucol, 2,2'-bis(3,5-di-tertiary-butyl-4-hydroxyphenylthio)propane, reference compound] | -33% | -21% | -15% | -12% | decreased | – | – | – | – | – | – | – | 59% | effective in preventing the progression of atherosclerosis | inhibits the oxidative modification of LDL | inhibits the oxidative modification of LDL
